Reference: patent publication US10654834B2 (Venenum Biodesign, LLC, priority 2016, dated 2020)
Like-named read-outs stand apart in the source and are kept apart here.

How the values were obtained:
[1] = Portal vein versus systemic pharmacokinetics in hepatic portal vein cannulated CD(SD) rats; format: in vivo; conditions: male, rat, 10 mg/kg oral; for AUC(0-t): read-out: AUC (0→7 h)
Procedure: Low Level of Compounds is Attributed to Low Intestinal Absorption
In this study, we determined if low plasma level of the compounds of the present invention is due to low absorption in the gut, or due to the first pass effect (i.e., absorption followed by a rapid degradation of compounds by liver). Hepatic portal vein cannulated male CD(SD) rats obtained from Charles River Laboratory were utilized. In brief, Compound 268 was administered orally at 10 mg/kg, and the blood was obtained simultaneously from the portal vein and systemic circulation (retro-orbital sinus) at predose, 0.25, 0.5, 1, 2, and 4 hours post-dose, in EDTA coated tubes. The samples were processed into plasma and quantification of compound levels in the plasma was accomplished by means of LC-MS/MS analysis as described in Example 81.

[2] = tested on: blood glucose; assay: Oral glucose tolerance test (OGTT) in C57BL/6NTac mice; format: in vivo, mouse
Procedure: Oral Glucose Tolerance Test (OGTT)
Compounds of the present invention were tested to determine if they could decrease blood glucose levels in mice after glucose administration (i.e., effective in glycemic control). In this study, we orally administered a standard dose of glucose to mice and measured glucose levels in circulating blood at several defined time points after the glucose administration.
8-12 week old male C57BL/6NTac (Taconic) mice were fasted overnight. On the morning of the experiment, the mice were weighed and divided into experimental groups (n=8) assigned by randomizing mice based on baseline blood glucose levels. Following group assignments, mice were dosed with 3 mg/kg sitagliptin or PBS as vehicle control via oral gavage (5 mL/kg) exactly 1 hour before oral gavage dosing of compound (30 mg/kg) or vehicle (0.5% carboxymethylcellulose (medium viscosity)+0.25% Tween −80) at a volume of 10 mL/kg. Time zero blood glucose levels were measured 4 hours after compound or vehicle dosing. Immediately following time zero blood glucose level measurement, mice were gavaged with 2 g/kg of glucose. […] AUC were calculated and data analyzed using one-way ANOVA followed by Dunnett's post-test in GraphPad Prism (FIG. 2). […]

[3] = tested on: GLP-1; assay: GLP-1 levels after 6 weeks of dosing in DIO mice; format: in vivo, mouse; conditions: 30 mg/kg + sitagliptin 10 mg/kg BID, 6 h after final dose, versus sitagliptin alone
From the text: In the next series of studies (Examples 93-99), Male DIO mice were received at 12 weeks of age (from Taconic), and were single-housed at the testing facility and acclimated for at least 2 weeks. The mice were provided a high fat diet [Research Diet D12492 (60% Fat kcal)] while in the testing facility. Before the study initiation, the animals were randomized into 5 experimental groups by body weight. The vehicle group contained only 0.5% carboxymethylcellulose (medium viscosity)+0.25% Tween-80. The second group contained 10 mg/kg of the DPP-IV inhibitor Sitagliptin while the third group contained 30 mg/kg Compound 268. The fourth group contained the combination of 10 mg/kg Sitagliptin and 30 mg/kg Compound 268. The fifth group was the positive control for weight loss, Rimonabant. All mice were dosed BID at approximately 6:00 am and again at approximately 4:00 pm. The positive control rimonabant was administered at a dose of 10 mg/kg in the afternoon and the morning dosing was vehicle (no compound). […]
Compounds of the present invention were dosed for multiple weeks and were evaluated to determine if they produce sustained GLP-1 levels.
In this example, the protocol from Example 93 was utilized. […] The active form of GLP-1 [GLP-1 (7-36) amide] was analyzed using Meso Scale Discovery System according to the manufacturer's directions (item number K150HYC). […]

[4] = tested on: GLP-1; assay: GLP-1 measurement at end of OGTT in C57BL/6NTac mice; format: in vivo, mouse; conditions: for blood GLP-1 level after OGTT, combination with sitagliptin: 30 mg/kg + sitagliptin 3 mg/kg p.o.
Procedure: Immediately after the last blood glucose measurement (i.e., 120 minutes after the glucose administration), the blood was collected via cardiac puncture for GLP-1 measurements. The collected blood (200-250 μL) was placed in an EDTA K^2+ tube containing 5 μL of 40 mg/mL aprotinin (Sigma A1153) and 1 μL of 10 mM sitagliptin (Sigma S8576) and plasma was separated by centrifugation. Plasma samples were stored at −20° C. until analysis. The active form of GLP-1 [GLP-1 (7-36) amide] was analyzed using Meso Scale Discovery System according to the manufacturer's directions (item number K150HYC). […] A synergy between the Compound 56 and sitagliptin is also observed (FIG. 3). Values of p<0.01 and <0.001 are considered statistically significant.
FIG. 4 depicts blood glucose measurements at 15, 30, 60, 90, and 120 min following glucose gavage. FIG. 5 depicts AUC data after glucose gavage. FIG. 6 depicts the blood GLP-1 levels comparing mice treated with a DPP-4 inhibitor (i.e., sitagliptin) to mice treated with Compound 268+a DPP-4 inhibitor (i.e., sitagliptin).

[5] = plasma (portal vein blood), Portal Vein bleed
[6] = plasma (systemic blood), Peripheral bleed (retro-orbital sinus)

Cmax [1, 5] [ng/mL] | Tmax [1, 5] [min] | AUC(0-t) [1, 5] [ng·h/mL] | Cmax [1, 6] [ng/mL] | Tmax [1, 6] [min] | AUC(0-t) [1, 6] [ng·h/mL] | SMILES | blood glucose levels in OGTT, combination with sitagliptin ([2]; 30 mg/kg + sitagliptin 3 mg/kg p.o. versus sitagliptin alone) | plasma GLP-1 level after 6 weeks of dosing [3] | blood GLP-1 level after OGTT, combination with sitagliptin [4] | blood glucose levels in OGTT ([2]; 30 mg/kg p.o. 4 h before 2 g/kg glucose, 15-120 min) | blood GLP-1 level after OGTT ([4]; 30 mg/kg p.o., 120 min after glucose)
15.7 ± 6.7 | 15 to 60 | 49.1 ± 47.3 | 43.9 ± 50.2 | 15 to 60 | 76.2 ± 84.3 | N#Cc1ccc(CCNC(=O)[C@@H]2CCN2c2cc(N3CCC(CCNC(=O)NCCC(=O)O)CC3)nc(C(F)(F)F)n2)cc1 [Compound 268, (S)-3-(3-(2-(1-(6-(2-((4-cyanophenethyl)carbamoyl)azetidin-1-yl)-2-(trifluoromethyl)pyrimidin-4-yl)piperidin-4-yl)ethyl)ureido)propanoic acid] | effectively reduced blood glucose levels throughout the time period measured | significantly increased level of GLP-1 | induced GLP-1 production | – | –
– | – | – | – | – | – | N#Cc1ccc(CCNC(=O)[C@@H]2CCCN2c2cc(N3CCC(CCC(=O)NCCS(=O)(=O)O)CC3)nc(C(F)(F)F)n2)cc1 [Compound 56, (S)-2-(3-(1-(6-(2-((4-cyanophenethyl)carbamoyl)pyrrolidin-1-yl)-2-(trifluoromethyl)pyrimidin-4-yl)piperidin-4-yl)propanamido)ethanesulfonic acid] | – | – | synergy | effectively reduced blood glucose levels throughout the time period measured | increased GLP-1 level
